Experiment: Antagonist activity at P2Y12 receptor in human platelet rich plasma assessed as inhibition of ADP-induced platelet aggregation by light transmission aggregometry

`CCCCCOC(=O)N1CCN(C(=O)[C@H](CCC(=O)O)NC(=O)c2cc(N3CCC(CN(CC)CC)CC3)nc(-c3ccccc3)n2)CC1` [(4S)-4-[(6-{4-[(diethylamino)methyl]piperidin-1-yl}-2-phenylpyrimidin-4-yl)formamido]-5-oxo-5-{4-[(pentyloxy)carbonyl]piperazin-1-yl}pentanoic acid] and `CCCCCOC(=O)N1CCN(C(=O)[C@H](CCC(=O)O)NC(=O)c2nc(-c3ccccc3)cc(N3CCC(CNCC)CC3)n2)CC1` [(S)-4-(4-(4-((ethylamino)methyl)piperidin-1-yl)-6-phenylpyrimidine-2-carboxamido)-5-oxo-5-(4-(pentyloxycarbonyl)piperazin-1-yl)pentanoic acid] are within 1.5-fold of each other in IC50: 0.86 µM for the first, 1.2 µM for the second.

Compared with `CCCCOC(=O)N1CCN(C(=O)[C@H](CCC(=O)O)NC(=O)c2cc(OC(CC)C(=O)N(CC)CC)nc(-c3ccccc3)n2)CC1` (stereo partly drawn) [(4S)-5-(4-(butoxycarbonyl)piperazin-1-yl)-4-(6-(1-(diethylamino)-1-oxobutan-2-yloxy)-2-phenylpyrimidine-4-carboxamido)-5-oxopentanoic acid], `CCCCOC(=O)N1CCN(C(=O)[C@H](CCC(=O)O)NC(=O)c2cc(OCC3CCCO3)nc(-c3ccccc3)n2)CC1` (stereo partly drawn) [(4S)-5-(4-(butoxycarbonyl)piperazin-1-yl)-5-oxo-4-(2-phenyl-6-((tetrahydrofuran-2-yl)methoxy)pyrimidine-4-carboxamido)pentanoic acid] is 11-fold lower in IC50: 49 µM for the first, 4.4 µM for the second.

First: CCCCCOC(=O)N1CCN(C(=O)[C@H](CCC(=O)O)NC(=O)c2cc(NCC3CCNC3)nc(-c3ccccc3)n2)CC1 (stereo partly drawn) [(4S)-5-oxo-5-(4-(pentyloxycarbonyl)piperazin-1-yl)-4-(2-phenyl-6-(pyrrolidin-3-ylmethylamino)pyrimidine-4-carboxamido)pentanoic acid]
Second: CCCCCOC(=O)N1CCN(C(=O)[C@H](CCC(=O)O)NC(=O)c2nc(NCCOC)cc(-c3ccccc3)n2)CC1 [(S)-4-(4-(2-methoxyethylamino)-6-phenylpyrimidine-2-carboxamido)-5-oxo-5-(4-(pentyloxycarbonyl)piperazin-1-yl)pentanoic acid]
The IC50 of the first is lower: 2.6 µM for the first, over 10 µM for the second. The first is the more potent here.

First: CCCCCOC(=O)N1CCN(C(=O)[C@H](CCC(=O)O)NC(=O)c2nc(NC3CCN(C(C)C)CC3)cc(-c3ccccc3)n2)CC1 [(S)-4-(4-(1-isopropylpiperidin-4-ylamino)-6-phenylpyrimidine-2-carboxamido)-5-oxo-5-(4-(pentyloxycarbonyl)piperazin-1-yl)pentanoic acid]
Second: CCCCCOC(=O)N1CCN(C(=O)[C@H](CCC(=O)O)NC(=O)c2nc(-c3ccccc3)cc(N3CCC(CNC)CC3)n2)CC1 [(S)-4-(4-(4-((methylamino)methyl)piperidin-1-yl)-6-phenylpyrimidine-2-carboxamido)-5-oxo-5-(4-(pentyloxycarbonyl)piperazin-1-yl)pentanoic acid]
The IC50 of the first is higher: over 10 µM for the first, 1.3 µM for the second. The second is the more potent here.

`CCCCCOC(=O)N1CCN(C(=O)[C@H](CCC(=O)O)NC(=O)c2nc(OCCN(CC)CC)cc(-c3ccccc3)n2)CC1` [(S)-4-(4-(2-(diethylamino)ethoxy)-6-phenylpyrimidine-2-carboxamido)-5-oxo-5-(4-(pentyloxycarbonyl)piperazin-1-yl)pentanoic acid] and `CCCCCOC(=O)N1CCN(C(=O)[C@H](CCC(=O)O)NC(=O)c2nc(OCCOC)cc(-c3ccccc3)n2)CC1` [(S)-4-(4-(2-methoxyethoxy)-6-phenylpyrimidine-2-carboxamido)-5-oxo-5-(4-(pentyloxycarbonyl)piperazin-1-yl)pentanoic acid] cannot be ordered by IC50: over 10 µM for the first, over 10 µM for the second.

Going from `CCCCCOC(=O)N1CCN(C(=O)[C@H](CCC(=O)O)NC(=O)c2nc(NCCCN(C)C)cc(-c3ccccc3)n2)CC1` [(S)-4-(4-(3-(dimethylamino)propylamino)-6-phenylpyrimidine-2-carboxamido)-5-oxo-5-(4-(pentyloxycarbonyl)piperazin-1-yl)pentanoic acid] to `CCCCCOC(=O)N1CCN(C(=O)[C@H](CCC(=O)O)NC(=O)c2nc(-c3ccccc3)cc(N3CCN(CC(=O)N(C)C)CC3)n2)CC1` [(S)-4-(4-(4-(2-(dimethylamino)-2-oxoethyl)piperazin-1-yl)-6-phenylpyrimidine-2-carboxamido)-5-oxo-5-(4-(pentyloxycarbonyl)piperazin-1-yl)pentanoic acid], the IC50 falls from over 10 µM to 3 µM.

`CCCCCOC(=O)N1CCN(C(=O)[C@H](CCC(=O)O)NC(=O)c2nc(OCCCN3CCOCC3)cc(-c3ccccc3)n2)CC1` [(S)-4-(4-(3-morpholinopropoxy)-6-phenylpyrimidine-2-carboxamido)-5-oxo-5-(4-(pentyloxycarbonyl)piperazin-1-yl)pentanoic acid] and `CCCCCOC(=O)N1CCN(C(=O)[C@H](CCC(=O)O)NC(=O)c2nc(-c3ccccc3)cc(N3CCN(CCOC)CC3)n2)CC1` [(S)-4-(4-(4-(2-methoxyethyl)piperazin-1-yl)-6-phenylpyrimidine-2-carboxamido)-5-oxo-5-(4-(pentyloxycarbonyl)piperazin-1-yl)pentanoic acid] are within 1.5-fold of each other in IC50: 7 µM for the first, 5.1 µM for the second.

First: CCCCCOC(=O)N1CCN(C(=O)[C@H](CCC(=O)O)NC(=O)c2nc(-c3ccccc3)cc(N3CCC(CCN)CC3)n2)CC1 [(S)-4-(4-(4-(2-aminoethyl)piperidin-1-yl)-6-phenylpyrimidine-2-carboxamido)-5-oxo-5-(4-(pentyloxycarbonyl)piperazin-1-yl)pentanoic acid]
Second: CCCCCOC(=O)N1CCN(C(=O)[C@H](CCC(=O)O)NC(=O)c2nc(-c3ccccc3)cc(N3CCC(CN)CC3)n2)CC1 [(S)-4-(4-(4-(aminomethyl)piperidin-1-yl)-6-phenylpyrimidine-2-carboxamido)-5-oxo-5-(4-(pentyloxycarbonyl)piperazin-1-yl)pentanoic acid]
The IC50 of the first is 1.8-fold higher: 1.4 µM for the first, 0.77 µM for the second.

First: CCCCCOC(=O)N1CCN(C(=O)[C@H](CCC(=O)O)NC(=O)c2nc(-c3ccccc3)cc(N3CCC(OCCO)CC3)n2)CC1 [(S)-4-(4-(4-(2-hydroxyethoxy)piperidin-1-yl)-6-phenylpyrimidine-2-carboxamido)-5-oxo-5-(4-(pentyloxycarbonyl)piperazin-1-yl)pentanoic acid]
Second: CCCCCOC(=O)N1CCN(C(=O)[C@H](CCC(=O)O)NC(=O)c2nc(-c3ccccc3)cc(N3CCC(OCCOC)CC3)n2)CC1 [(S)-4-(4-(4-(2-methoxyethoxy)piperidin-1-yl)-6-phenylpyrimidine-2-carboxamido)-5-oxo-5-(4-(pentyloxycarbonyl)piperazin-1-yl)pentanoic acid]
The IC50 of the first is higher: over 10 µM for the first, 5.3 µM for the second. The second is the more potent here.

`CCCCCOC(=O)N1CCN(C(=O)[C@H](CCC(=O)O)NC(=O)c2nc(-c3ccccc3)cc(N3CCC(CCOC)CC3)n2)CC1` [(S)-4-(4-(4-(2-methoxyethyl)piperidin-1-yl)-6-phenylpyrimidine-2-carboxamido)-5-oxo-5-(4-(pentyloxycarbonyl)piperazin-1-yl)pentanoic acid] and `CCCCCOC(=O)N1CCN(C(=O)[C@H](CCC(=O)O)NC(=O)c2nc(-c3ccccc3)cc(N3CCC(COCCOC)CC3)n2)CC1` [(S)-4-(4-(4-((2-methoxyethoxy)methyl)piperidin-1-yl)-6-phenylpyrimidine-2-carboxamido)-5-oxo-5-(4-(pentyloxycarbonyl)piperazin-1-yl)pentanoic acid] cannot be ordered by IC50: over 10 µM for the first, over 10 µM for the second.
